Results as given in PMC12442392, “Identification of a novel ipp gene cluster responsible for 2-isopropylphenol degradation in strain Rhodococcus sp. D-6” (Applied and Environmental Microbiology, 2025).
Residue numbers refer to the chain shown, from its start.

Experiments:
IppB [1] = biological target: T1, IppB (Rhodococcus sp. D-6, UniProt A0AAU7V3K6, H9A, form not given); assay: enzyme activity assay; format: biochemical; details: standard assay 200 µM substrate, 1.0 µM enzyme, 10 µM Fe^2+; 20 mM Tris-HCl pH 7.4, 30°C; Fe(II)-binding residue
T1 sequence (A0AAU7V3K6 1-190 H9A): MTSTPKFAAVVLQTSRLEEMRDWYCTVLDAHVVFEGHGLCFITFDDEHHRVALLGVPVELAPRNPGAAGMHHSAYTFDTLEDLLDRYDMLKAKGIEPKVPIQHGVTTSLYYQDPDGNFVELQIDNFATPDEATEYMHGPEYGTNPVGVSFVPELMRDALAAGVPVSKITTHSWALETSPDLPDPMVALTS

IppB [2] = biological target: T2, IppB (Rhodococcus sp. D-6, UniProt A0AAU7V3K6, H72A, form not given); assay: enzyme activity assay; format: biochemical; details: standard assay 200 µM substrate, 1.0 µM enzyme, 10 µM Fe^2+; 20 mM Tris-HCl pH 7.4, 30°C; Fe(II)-binding residue
T2 sequence (A0AAU7V3K6 1-190 H72A): T1 sequence (A0AAU7V3K6 1-190 H9A) with A9H, H72A

IppB [3] = biological target: T3, IppB (Rhodococcus sp. D-6, UniProt A0AAU7V3K6); assay: Michaelis-Menten kinetics, nonlinear regression; format: biochemical; details: 1.0 µM IppB, 10 µM Fe^2+; 20 mM Tris-HCl pH 7.4, 30°C; read-out: apparent Km
T3 sequence (A0AAU7V3K6 1-190): T1 sequence (A0AAU7V3K6 1-190 H9A) with A9H

IppB [4] = biological target: T4, IppB (Rhodococcus sp. D-6, UniProt A0AAU7V3K6, E120A, form not given); assay: enzyme activity assay; format: biochemical; details: standard assay 200 µM substrate, 1.0 µM enzyme, 10 µM Fe^2+; 20 mM Tris-HCl pH 7.4, 30°C; Fe(II)-binding residue
T4 sequence (A0AAU7V3K6 1-190 E120A): T1 sequence (A0AAU7V3K6 1-190 H9A) with A9H, E120A

[5] = test system: T5, IppA1A2 (IppA1 with reductase component IppA2); assay: Michaelis-Menten kinetics, nonlinear regression; format: biochemical, Rhodococcus sp. D-6; details: 250 µM NADH, 10 µM FAD, 1.2 µM IppA1, 0.4 µM IppA2; 20 mM Tris-HCl pH 7.4, 30°C; read-out: apparent Km
T5 construct: mixed at molar ratio 3:1 in assay; with 2-isopropylphenol monooxygenase, reductase component (flavin reductase)

SMILES	activity lost (no turnover) (IppB [1])	activity lost (no turnover) (IppB [2])	Km (IppB [3]) [µM]	activity lost (no turnover) (IppB [4])	Km [5] [µM]
CC(C)c1cc(O)ccc1O [2-isopropylhydroquinone]	all variants lost their activity against 2-isopropylhydroquinone	all variants lost their activity against 2-isopropylhydroquinone	29.1 ± 1.54	all variants lost their activity against 2-isopropylhydroquinone	
CC(C)c1ccccc1O [2-isopropylphenol]					60.5 ± 1.27
